Tests used:
Type in all cases: cell-based, human
LNCaP [1] = test: MTT cell viability assay; conditions: DEFB1 (hBD-1) induction 24-72 h
Experimental: (§1) MTT Cell Viability Assay: To examine the effects of DEFB1 on cell growth, metabolic 3-[4,5-dimethylthiazol-2-yl]-2,5 diphenyl tetrazolium bromide (MTT) assays were performed. PC3, DU145 and LNCaP cells co-transfected with pVgRXR plasmid and pIND/DEFB1 construct or empty pIND vector were seeded onto a 96-well plate at 1-5×10^3 cells per well. Twenty-four hours after seeding, fresh growth medium was added containing 10 μM Ponasterone A daily to induce DEFB1 expression for 24-, 48- and 72 hours after which the MTT assay was performed according to the manufacturer's instructions (Promega). Reactions were performed three times in triplicate.
(§2) MTT Cytotoxicity Assay: DU145, PC3 and LNCaP cells (1×105) were transfected with 0.5 μg of the PAX2 siRNA pool or control siRNA pool using Codebreaker transfection reagent according to the manufacturer's protocol (Promega). Next, cell suspensions were diluted and seeded onto a 96-well plate at 1-5×10^3 cells per well and allowed to grow for 2-, 4- or 6 days. After culture, cell viability was determined by measuring the conversion of 3-[4,5-dimethylthiazol-2-yl]-2,5 diphenyl tetrazolium bromide, MTT (Promega), to a colored formazan product. Absorbance was read at 540 nm on a scanning multiwell spectrophotometer.
(§3) MTT cell viability assay: To examine the effects of hBD-1 on cell growth, metabolic 3-[4,5-dimethylthiazol-2-yl]-2,5-diphenyl tetrazolium bromide (MTT) assay was performed. DU145, LNCaP, PC3 and PC3/AR+ cells co-transfected with pvgRXR plasmid and pIND/hBD-1 construct or control pvgRXR plasmid were seeded onto a 96-well plate at 1-5×10^3 cells per well. Twenty-four hours after seeding, fresh growth medium was added containing 10 μM Pon A daily to induce hBD-1 expression for 24, 48 and 72 h after which the MTT assay was performed according to the manufacturer's instructions (Promega). Reactions were performed three times in triplicate.
(§4) MTT cytotoxicity assay: DU145, PC3 and LNCaP cell suspensions were diluted and seeded onto a 96-well plate at 1-5×10^3 cells per well. Next the cells were transfected, according to the manufacturer's protocol (Promega), with 5 pg/cell of the PAX2 siRNA pool, control siRNA pool, or the Codebreaker transfection reagent alone. All cells were allowed to grow for 2-, 4- or 6 days after treatment. Cell viability was then determined by measuring the conversion of 3-[4,5-dimethylthiazol-2-yl]-2,5 diphenyl tetrazolium bromide, MTT (Promega) to a colored formazan product. Absorbance was read at 540 nm on a scanning multi-well spectrophotometer.

DU145 [2] = test: MTT cell viability assay
Experimental: as §1, §2, §3, §4

LNCaP [3] = test: Acridine orange/ethidium bromide membrane integrity; conditions: 48 h hBD-1 induction
Experimental: (§5) Analysis of Membrane Permeability: Acridine orange (AO)/ethidium bromide (EtBr) dual staining was performed to identify changes in cell membrane integrity, as well as apoptotic cells by staining the condensed chromatin. AO stains viable cells as well as early apoptotic cells, whereas EtBr stains late stage apoptotic cells that have lost […]. Briefly, cells were seeded into 2 chamber culture slides (BD Falcon, USA). Cells transfected with empty pIND plasmid/pvgRXR or pIND DEFB1/pvgRXR were induced for 24 or 48 h with media containing 10 μM Ponasterone A. Control cells were provided fresh media at 24 and 48 h. In order to determine the effect of PAX2 inhibition on membrane integrity, separate culture slides containing DU145, PC3 and LNCaP were treated with PAX2 siRNA and incubated for 4 days. Following this, cells were washed once with PBS and stained with 2 ml of a mixture (1:1) of AO (Sigma, USA) and EtBr (Promega, USA) (5 ug/ml) solution for 5 min. Following staining, the cells were again washed with PBS. Fluorescence was viewed by a Zeiss LSM 5 Pascal Vario 2 Laser Scanning Confocal Microscope (Carl Zeiss Jena, Germany). The excitation color wheel contain BS505-530 (green) and LP560 (red) filter blocks which allowed for the separation of emitted green light from AO into the green channel and red light from EtBr into the red channel. The laser power output and gain control settings within each individual experiment were identical between control and DEFB1 induced cells. The excitation was provided by a Kr/Ar mixed gas laser at wavelengths of 543 nm for AO and 488 nm for EtBr. Slides were analyzed under 40× magnification and digital images were stored as uncompressed TIFF files and exported into Photoshop CS software (Adobe Systems, San Jose, Calif.) for image processing and hard copy presentation.
(§6) Analysis of membrane integrity: Acridine orange (AO)/ethidium bromide (EtBr) dual staining was performed to identify changes in cell membrane integrity, as well as apoptotic cells by staining the condensed chromatin. AO stains viable cells and early apoptotic cells, whereas EtBr stains late stage apoptotic cells that have compromised membranes. Briefly, PC3, DU145 and LNCaP cells were seeded into 2-chamber culture slides (BD Falcon). Cells transfected with empty plasmid or hBD-1 plasmid were induced for 24 or 48 h with media containing 10 μM Pon A, while control cells received fresh growth media at each time point. After induction, cells were washed once with PBS and stained with 2 ml of a mixture (1:1) of AO (Sigma, St. Louis, Mo.) and EtBr (Promega) (5 μg/ml) solution for 5 min and were again washed with PBS.
(§7) Fluorescence was viewed by a Zeiss LSM 5 Pascal Vario 2 Laser Scanning Confocal Microscope (Carl Zeiss). The excitation color wheel contains BS505-530 (green) and LP560 (red) filter blocks which allowed for the separation of emitted green light from AO into the green channel and red light from EtBr into the red channel. The laser power output and gain control settings within each individual experiment were identical between control and hBD-1 induced cells. The excitation was provided by a Kr/Ar mixed gas laser at wavelengths of 543 nm for AO and 488 nm for EtBr. Slides were analyzed under 40× magnification and digital images were stored as uncompressed TIFF files and exported into Photoshop CS software (Adobe Systems) for image processing and hard copy presentation. […]

PC3 = test: as above
Experimental: as §5, §6, §7

DU145 [4] = test: as above
Experimental: as §5, §6, §7

PC3/AR+ = test: MTT cell viability assay; conditions: PC3/AR+ compared with PC3
Experimental: as §3

[5] = DU145, 48 h DEFB1 (hBD-1) induction

## DEFB1: human beta defensin-1 expressed from the ecdysone inducible pIND/DEFB1 construct, induced with Ponasterone A (DHYNCVSSGGQCLYSACPIFTKIQGTCYRGKAKCCK; UniProt P60022 33-68, looked up)
LNCaP [1]
  effect on cell viability: no significant effect
DU145 [2]; DU145, 24 h DEFB1 (hBD-1) induction, 10 μM Ponasterone A
  relative cell viability: 72%
DU145 [2]; [5]
  relative cell viability: 49%
DU145 [2]; DU145, 72 h DEFB1 (hBD-1) induction
  relative cell viability: 44%
LNCaP [3]
  membrane integrity (AO/EtBr staining): no observable alterations to membrane integrity
PC3; PC3, 24 h DEFB1 (hBD-1) induction
  membrane integrity (AO/EtBr staining): accumulation of EtBr in the cytoplasm
PC3; PC3, 48 h DEFB1 (hBD-1) induction
  membrane integrity (AO/EtBr staining): condensed nuclei and appeared yellow
DU145 [4]; DU145, 24 h DEFB1 (hBD-1) induction
  membrane integrity (AO/EtBr staining): accumulation of EtBr in the cytoplasm
DU145 [4]; [5]
  membrane integrity (AO/EtBr staining): condensed nuclei and appeared yellow
PC3/AR+
  hBD-1 cytotoxicity with ectopic AR expression: no difference between PC3/AR+ and PC3 cells
